Several values for one entry are separate records, joined by “and”; a condition that tells them apart may be missing. Equal values may be shown once. Read-outs that look alike come from different tables or passages of the source. Non-standard residues stand in square brackets, D forms with d. Residues, ends and D or L forms follow the SMILES beside them. Nspe(4-Br) = C[C@H](NCC(=O)O)c1ccc(Br)cc1; Nspe = C[C@H](NCC(=O)O)c1ccccc1; NDecylGly = CCCCCCCCCCNCC(=O)O; Nlys = NCCCCNCC(=O)O
Tests used:
[1] = tested on: human corneal epithelial cells; experiment: Cytotoxicity (MTT) to corneal epithelial cells; assay type: cell-based
Procedure: Cytotoxicity to corneal epithelial cells was assessed for peptoids TM1, TM5 and TM9 using previously published methods and FDA guidelines. These peptides represent structurally diverse types (Table 2) and had different abilities to cause hemolysis of red blood cells (Fig. 1 and Table 3). Corneal cells were seeded on 96 well plate (GreinerBio One, Frickenhauser, Germany) incubated in 5 % CO2 at 37°C and grown to 80 % confluence in Dulbecco’s modified Eagle’s medium (DMEM) (Sigma-Aldrich, Irvine, UK). They were then exposed to twofold dilutions of each peptoid at concentrations ranging from 500 to 1.95 μg mL^−1 for 24 h at 37°C. An MTT (3-(4,5-dimethylthiazol-2yl)-2,5-diphenyltetrazolium bromide; Sigma-Aldrich) working solution of 0.5 mg mL^−1 was dissolved in DMEM, 100–200 μL was dispensed into each well and incubated for 4 h at 37°C. Following incubation, MTT was replaced by dimethyl sulfoxide (DMSO, Sigma Aldrich) to dissolve the formazan crystals formed by viable cells. Absorbance of this solution was measured at OD570nm. The absorbance is directly proportional to the number of viable cells. The normalized absorbance was calculated to determine number of viable cells using the following formula: %Cytotoxicity=(Absorbance of experiment well)−mean(absorbance of control well)/mean(Absorbance of positive control well)⋆100
Data are also presented as the concentration of peptoids that caused 10 % or 50 % cytotoxicity to human corneal epithelial cells.
(§1) The geometric mean is the nth root of the multiplied numbers, where n is the total number of data values. A similar formula was used to calculate the selectivity ratio, but by using the concentration of peptoid that caused 10 % hemolysis.

streptococci = experiment: MIC micro broth dilution, summary over streptococci; assay type: cell-based
From the text: (§3) The S. pneumoniae strains used were SP04, SP06 and SP07 [46] and Streptococcus gallolyticus SV06 (all isolated from eyes of contact lens wearers during adverse events); P. aeruginosa PAO1 (which was originally isolated from a wound, and is an invasive strain containing the gene exoS) as well as isolates from microbial keratitis, PA 235 (invasive strain containing exoS), PA216 (a cytotoxic strain containing exoU), PA219 (cytotoxic strain containing exoU), PA 233 (cytotoxic strain containing exoU), with various susceptibilities to antibiotics were also used [14]. C. albicans ATCC 10231, a yeast, isolated from case of a human bronchomycosis, was also evaluated.
(§4) The peptoids’ minimum inhibitory and bactericidal concentrations (MIC and MBC) were determined using micro broth dilution methods as previously described with slight modifications, [26, 39, 49, 50], and without using acetic acid and bovine serum albumin [39]. Briefly, bacteria or yeast were suspended in Muller Hinton broth (MHB, Oxoid, Thermo Fisher Scientific, Thebarton, SA, Australia) at 0.1 OD660nm, which was equivalent to 1x10^8 colony forming units (CFU) mL^−1. This suspension was further diluted to achieve 5x10^6 CFU mL^−1. […] Post incubation, the number of CFUs on the agar plates was counted.

S. aureus strains = assay type: cell-based, Staphylococcus aureus; conditions: summary over five S. aureus strains in text
From the text: as §3, §4

Trypsin = target: T1, Trypsin (Bos taurus, UniProt P00760)
T1 sequence (P00760 24-246): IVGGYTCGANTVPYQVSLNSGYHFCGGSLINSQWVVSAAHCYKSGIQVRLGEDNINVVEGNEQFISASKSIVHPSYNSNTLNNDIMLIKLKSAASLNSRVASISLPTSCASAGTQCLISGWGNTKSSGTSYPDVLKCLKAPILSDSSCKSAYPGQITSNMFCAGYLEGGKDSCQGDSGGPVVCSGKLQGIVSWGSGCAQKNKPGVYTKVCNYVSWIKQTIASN
Procedure: (§2) Melimine was used as positive control as it is a cationic antimicrobial peptide that can be hydrolysed by proteases. The Expasy peptide cutter module (https://web.expasy.org/peptide_cutter/) was accessed to predict which proteases might digest melimine. The susceptibility of the antimicrobial compounds to digestion by two proteases expected to digest melimine, Proteinase K (120 unit mL^−1 in 20 mM Tris HCl, pH 7.4; New England Bio Labs, Australia) and Trypsin (10,350 BAFE units/mg in 50 mM borate buffer, pH 8.5; Thermo Scientific products, Australia), was tested. The peptoids and melimine were incubated with each protease at the ratio (w/w) of 1:100 in PBS (pH 7.4) for 24 h at 37 °C. After incubation, the peptoid/melimine + protease solutions were tested for their activity against P. aeruginosa 216 which was grown overnight in TSB at 37 °C. Bacterial cells were washed three times in PBS and then resuspended in MHB OD660nm of 0.1 (equal to 1x10^8 CFU mL^−1. The bacterial suspension was then diluted in MHB to a final working concentration of 5x10^6 cells mL^−1. The diluted bacterial suspension was subsequently added to the wells containing the peptoids/melimine + protease solution and incubated for 24 h at 37 °C. Peptoids/melimine solutions alone (no proteases) were used as a positive control, while protease solutions without the peptoids/melimine were used as a negative control. Post incubation, to inhibit the activity of the proteases, the bacterial suspensions were heated at 55 °C for 10 min in a water bath. After the heating step, the absorbance of the suspensions was measured at OD660nm.

Proteinase K = Proteinase K (Parengyodontium album, UniProt P06873)
Sequence of Proteinase K (P06873 106-384): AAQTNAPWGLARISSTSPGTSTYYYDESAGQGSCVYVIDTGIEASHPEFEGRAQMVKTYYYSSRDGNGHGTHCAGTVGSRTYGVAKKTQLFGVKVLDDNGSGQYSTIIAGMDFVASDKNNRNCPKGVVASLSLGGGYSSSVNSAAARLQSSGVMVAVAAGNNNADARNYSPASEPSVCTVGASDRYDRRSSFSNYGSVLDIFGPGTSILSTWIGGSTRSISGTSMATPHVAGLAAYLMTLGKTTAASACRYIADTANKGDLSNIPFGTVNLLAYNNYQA
Procedure: as §2

P aeruginosa 216 = tested on: P aeruginosa 216
Procedure: as §2

tested bacteria = experiment: Geometric mean of MIC of the tested bacteria; assay type: cell-based; conditions: nth root of the multiplied MICs of the tested bacteria
From the text: as §1

[2] = incubated with protease at ratio (w/w) 1:100 in PBS pH 7.4, 24 h 37 °C, then P aeruginosa 216 in MHB 24 h 37 °C, OD660nm

From the text for all strains: as §3, §4

Compound: C[C@@H](c1ccccc1)N(CC(N)=O)C(=O)CN(C(=O)CN(CCCCN)C(=O)CN(C(=O)CN(C(=O)CN(CCCCN)C(=O)CN(C(=O)CN(C(=O)CN(CCCCN)C(=O)CN(C(=O)CN(C(=O)CNCCCCN)[C@@H](C)c1ccccc1)[C@@H](C)c1ccccc1)[C@@H](C)c1ccccc1)[C@@H](C)c1ccccc1)[C@@H](C)c1ccccc1)[C@@H](C)c1ccccc1)[C@@H](C)c1ccccc1 [TM1] (H-[Nlys][Nspe][Nspe][Nlys][Nspe][Nspe][Nlys][Nspe][Nspe][Nlys][Nspe][Nspe]-NH2)
- HCE CC10 ([1]; concentration causing 10 % cytotoxicity to human corneal epithelial cells, MTT, 24 h 37°C): 1 µM
- HCE CC50 ([1]; concentration causing 50 % cytotoxicity to human corneal epithelial cells, MTT, 24 h 37°C): 10 µM
- cytotoxicity to human corneal epithelial cells relative to MIC ([1]; result in words): cytotoxic to human corneal epithelial cells at or below their MICs
- SR HCE (ratio CC10 to geometric mean MIC) ([1]; selectivity ratio): 0.3
- TI HCE (ratio CC50 to geometric mean MIC) ([1]; therapeutic index): 3
- MIC against other streptococci (streptococci): ≤ 8.6 µM
- MIC among S. aureus (S. aureus strains): ≤ 9.4 µM

Compound: C[C@@H](c1ccc(Br)cc1)N(CC(=O)N(CCCCN)CC(=O)N(CC(=O)N(CC(=O)N(CCCCN)CC(N)=O)[C@@H](C)c1ccc(Br)cc1)[C@@H](C)c1ccc(Br)cc1)C(=O)CN(C(=O)CNCCCCN)[C@@H](C)c1ccc(Br)cc1 [TM14] (H-[Nlys][Nspe(4-Br)][Nspe(4-Br)][Nlys][Nspe(4-Br)][Nspe(4-Br)][Nlys]-NH2)
- MIC after Trypsin (Trypsin; pH 7.4): 7.8 (5.8) μg mL^−1
- MIC after Proteinase K (Proteinase K; pH 7.4): 7.8 (5.8) μg mL^−1
- MIC, No protease (P aeruginosa 216; 216, 24 h): 7.8 (5.8) μg mL^−1
- Geometric mean of MIC (tested bacteria): 4.0 µM and 4 µM
- MICs against all strains (all strains): ≤ 12.7 µM

Compound: CCCCCCCCCCNCC(=O)N(CCCCN)CC(=O)N(CC(=O)N(CC(=O)N(CCCCN)CC(=O)N(CC(=O)N(CC(=O)N(CCCCN)CC(N)=O)[C@@H](C)c1ccccc1)[C@@H](C)c1ccccc1)[C@@H](C)c1ccccc1)[C@@H](C)c1ccccc1 [TM18] (H-[NDecylGly][Nlys][Nspe][Nspe][Nlys][Nspe][Nspe][Nlys]-NH2)
- MIC after Trypsin (Trypsin; [2]): 15 (12) μg mL^−1
- MIC after Proteinase K (Proteinase K; [2]): 15 (12) μg mL^−1
- MIC, No protease (P aeruginosa 216; P aeruginosa 216 in MHB, 24 h 37 °C, OD660nm, compound alone): 15 (12) μg mL^−1
- Geometric mean of MIC (tested bacteria): 5 µM

— publication PMC11024869, “The activity of antimicrobial peptoids against multidrug-resistant ocular pathogens” (Contact lens & anterior eye : the journal of the British …, 2024)
